The source of these data is US20260355142A1, “AMORPHOUS OTE[…] COMPOSITIONS AND USES THEREOF AND DOSAGE REGIMENS FOR OTENAPROXESUL” (ANTIBE THERAPEUTICS INC., priority 2022, published 2026).

Series [1] can be described thus: Dog pharmacokinetics of otenaproxesul amorphous dispersion (Example 20). The series is classed as in vivo, male Beagle dogs. The procedure: Summary: Over a 4-day treatment period dogs were administered four treatment doses of the otenaproxesul amorphous solid dispersion formulation (exemplary ASD no. 1) and a crystalline otenaproxesul control dose. Treatments corresponding to human equivalent doses of 70.2 mg, 140.4 mg, 280.8 mg and 561.6 mg otenaproxesul were administered once daily to male (n=4) dogs. Crystalline otenaproxesul was administered at the NOAEL dose equivalent to a human dose of 526.5 mg otenaproxesul once daily.
Pharmacokinetic data were evaluated on M25 plasma naproxen concentrations at 60 minutes post administration (C60), Day 1 M25 plasma exposure (AUC0-24) and Day 4 M25 plasma exposure (AUC0-Last). Assessment of dose proportional characteristics for M25 plasma concentration at 60 minutes post administration (C60) and at maximal concentration (Cmax) and AUC exposure were measured on Day 1 and Day 4 of treatment.

A short description of series [2]: Pharmacokinetics in Beagle dogs of five formulations (Example 15). The following applies: Day 1, 1- and 12-hour time points. The series is classed as in vivo. The procedure:
(§1) The pharmacokinetics of five different formulations of otenaproxesul (formerly ATB-346) were evaluated in Beagle dogs. Five groups of dogs (n=3/group) were orally administered their assigned formulations once daily for four days. Blood samples were taken for a full 24-hour PK profile on Day 1 and on Day 4.
(§2) Group 1 was administered crystalline otenaproxesul, Group 2 was administered milled crystalline otenaproxesul, Group 3 was administered micro-milled crystalline otenaproxesul, Group 4 was administered exemplary ASD no. 1 (see Example 7A above) and Group 5 was administered exemplary ASD no. 4 (see Example 7A above). Dose administered was 15 mg/kg (human equivalent dose of 525 mg).
Crystalline otenaproxesul was administered to dog Groups 1-3 in gelatin capsules by oral gavage. Exemplary ASD no. 1 and exemplary ASD no. 4 were administered as oral suspensions to dog Groups 4-5.

In series [3] the test system is TXB2. As to the kind of experiment: Pharmacodynamics in Beagle dogs, plasma TXB2. The conditions noted are these: 15 mg/kg, Day 1 and Day 4 pre-treatment. The series is classed as in vivo. As for the experimental part:
as §1, §2
Pharmacodynamic assessment of TXB2 and PGE2 plasma concentrations were assessed on: • Day 1, one hour post treatment • Day 1, 12 hours post treatment • Day 4, pre-treatment • Day 4, one hour post treatment • Day 4, 12 hours post treatment.

The subject of series [4] is thromboxane B2. As to the kind of experiment: Phase 2b study, plasma thromboxane B2. It is filed as in vivo, human. As for the experimental part: Whole blood samples were taken pre-treatment and on Days 1, 4 and 14 for the measurement of thromboxane B2 as an index of cyclo-oxygenase enzyme inhibition. Thromboxane B2 levels were measured using the Thromboxane B2 Elisa Kit from Cayman Chemical, Ann Arbor Michigan. Instructions provided with the Kit were followed.
Blood samples for measurement of thromboxane concentrations were collected at room temperature in 10 mL red top, no additive Vacutainers. Blood samples were taken approximately 4 hours after dosing and divided into 2 aliquots. The first aliquot (1 mL) was prepared for the measurement of otenaproxesul-derived plasma naproxen concentrations. The second aliquot (2 mL) was further divided into 2 polypropylene tubes for the measurement of plasma thromboxane concentrations.

Series [5] is described as follows: Phase 2b study, safety (treatment-emergent adverse events). It is filed as in vivo, human. The following applies: for hypertension or blood pressure increased: 2 patients. As for the experimental part: (§3) Study visits occurred on Day 1, Day 4, and Day 14 of the 14-day treatment phase and included WOMAC evaluations, blood samples for thromboxane B2 TXB2 and pharmacokinetic (PK) testing. The safety of otenaproxesul was evaluated through monitoring for adverse events (AEs), changes in physical examinations, vital signs measurements, and clinical laboratory evaluations.
Patients were followed for safety for up to 24 days following initiation of treatment. A final visit for safety assessments occurred upon study completion on Day 24 or early termination.
(§4) All patients receiving any amount of study treatment (otenaproxesul or placebo) were included in the safety analysis. Each treatment arm was evaluated separately. In addition to the evaluation and categorization of treatment-emergent adverse events (TEAEs), listings of laboratory test results collected at Baseline and during the study were generated. Descriptive statistics summarizing the changes in those laboratory tests over time were presented.

The subject of series [6] is ALT and/or AST. The series can be described thus: Phase 2b study, liver transaminase elevations. It is filed as in vivo, human. As for the experimental part: as §3, §4
The majority of otenaproxesul liver associated TEAEs were alanine aminotransferase (ALT) and/or aspartate aminotransferase (AST) liver transaminase elevations. None of these TEAEs were observed during the 14-day treatment period but were captured at the Day 24/Early Termination (ET) follow up assessment.

Series [7] can be described thus: Phase 1 SAD clinical trial, plasma naproxen (M25) levels. It is filed as in vivo, human. The conditions noted are these: single oral dose of about 1500 mg to 2000 mg. As for the experimental part: Otenaproxesul (crystalline form) was orally administered at a range of doses to healthy volunteers, both as a single dose, and as a daily (or twice-daily) dose for 14 days. Each cohort consisted of 8 subjects, with 6 receiving otenaproxesul and 2 receiving placebo. A total of 8 cohorts were studied in the single-dose study (25 mg, 75 mg, 150 mg, 300 mg, 500 mg, 1000 mg, 1500 mg and 2000 mg), and 3 cohorts in the multiple-dose study (250 and 750 once daily, and 750 mg bid (e.g., 1500 mg/day) for 14 days). All adverse events were recorded, and blood samples were drawn prior to and for at least 72 h after drug administration for measurement of otenaproxesul-derived naproxen levels. Routine cardiovascular, renal, hepatic and hematological biomarkers were monitored, along with clinical signs. […]
It is noted from the pharmacokinetic curves in FIG. 1 showing naproxen metabolite (M25) plasma levels following single dose crystalline otenaproxesul administrations in healthy subjects from the Phase 1 single ascending dose (SAD) study in Example 1, the time to attain maximal plasma concentration of M25 varies widely between 6 and 48 hours across the dosage spectrum. […] Therefore, while not being bound by theory, a single 2000 mg treatment is predicted to provide pain relief for 3 days and possibly to 5 days based upon measured and projected M25 plasma concentrations. […]

`COc1ccc2cc([C@H](C)C(=O)Oc3ccc(C(N)=S)cc3)ccc2c1` [crystalline otenaproxesul]: in series [1] (crystalline HED 527 mg vs amorphous HED 562 mg), the “M25 plasma concentration at 1 hour, Day 4, compared” value is “comparable M25 plasma concentrations”. Besides, the “Cmax Day 4/Day 1 ratio” value in series [1] (dogs, HED 526.5 mg) was 1.4. The “steady state pharmacokinetics of M25 compared” value in series [1] (dogs, crystalline 526.5 mg vs amorphous 561.6 mg HED) was “virtually identical”. For the same molecule, the “lower M25 plasma concentration than the exemplary ASDs” value in series [2] worked out at 10 ×. The “inhibition of TXB2 relative to ASDs” value in series [3] is given as “inhibition of TXB2 was lower”.

`COc1ccc2cc([C@H](C)C(=O)Oc3ccc(C(N)=S)cc3)ccc2c1` [otenaproxesul, (S)-4-carbamothioylphenyl 2-(6-methoxynaphthalen-2-yl) propanoate]: the “plasma thromboxane B2 levels” value in series [4] (150 mg daily) is “marked reduction in plasma thromboxane B2 levels”. Moreover, the TXB2 levels entry in series [4] (Day 1, 150, 200, 250 mg) is “significant suppression of thromboxane B2 levels”. In addition, the “inhibition of TXB2 synthesis” value in series [4] (Day 4, 150, 200, 250 mg) is reported as “profound inhibition of thromboxane B2 synthesis”. In series [4] (Day 14, 150, 200, 250 mg), the “inhibition of TXB2 synthesis” value is reported as “profound inhibition of thromboxane B2 synthesis”. Moreover, in series [5] (150 mg), the “hypertension or hypotension events” value is recorded as “No patients” and the “patients with TEAEs” value turned out to be 37.7%. Also, in series [5] (200 mg, 1 patient), the hypotension was 0.8%. For the same molecule, the “hypertension or blood pressure increased” value in series [5] (200 mg) came out at 1.6%. In addition, in series [5] (250 mg), the “patients with TEAEs” value is recorded as 43.9% and the “hypertension or blood pressure increased” value is given as 1.5%. For the same molecule, in series [5] (all otenaproxesul groups), the TEAE headache is given as 5.0%, the “TEAE hepatic enzyme increased” value came out at 8.2% and the “patients with at least 1 TEAE” value stood at 40.9%. Further, the “gastrointestinal disorder TEAEs” value in series [5] (all otenaproxesul groups, 14-day treatment) is on record as 14.5%. For the same molecule, in series [5] (all three doses, 14 days), the tolerability entry is “well tolerated at all three administered doses”. In addition, in series [5] (all three treatment arms), the “discontinuation due to gastrointestinal TEAEs” value is on record as “none were discontinued due to TEAEs related to gastrointestinal adverse effects”. This molecule came in with a serum creatinine in series [5] (one patient, 200 mg for 14 days, Day 24) of 1.5 ×ULN. Besides, in series [6] (150 mg (6/61)), the “patients with treatment-related >3×ULN ALT and/or AST” value is reported as 9.8% and the “patients with treatment-related increases in ALT and/or AST” value came to 9.8%. For the same molecule, in series [6] (200 mg (9/125)), the “patients with treatment-related >3×ULN ALT and/or AST” value stood at 7.2% and the “patients with treatment-related increases in ALT and/or AST” value came out at 7.2%. In series [6] (250 mg (17/132)), the “patients with treatment-related >3×ULN ALT and/or AST” value is on record as 12.9% and the “patients with treatment-related increases in ALT and/or AST” value turned out to be 12.9%. Moreover, the “duration of plasma naproxen metabolite greater than about 10 μg/mL” value in series [7] is “over 72 hours”.
